# Test results reported in patent US20250327028A1, “ENGINEERED PLATELETS AS TARGETED PROTEIN DEGRADERS” (Wisconsin Alumni Research Foundation, priority 2024, published 2025).
# Experiments:
# HSP90 [1] = assay: Streptavidin-bead immunoprecipitation of biotin-labeled HSP90 in platelets treated with HAC-B; type: cell-based, BALB/c mice
# Protocol: The immunoprecipitation assays based on the streptavidin-biotin system were used to evaluate the engineering efficiency of HAC-B on platelets. The fresh platelets were isolated from the whole blood of BALB/c mice as described above. PBS containing PGE1 ([…]) was adopted to dilute the platelets to a final concentration of 1×10^8 platelets/mL, and a total amount of 2×10^8 platelets (2 mL) was assigned for each sample in one tube. The HAC-B stock solution in DMSO was added to each tube at a final concentration of 2.5, 5, or 10 μM, and then the samples were placed in an orbital shaker with a speed of 50 rpm and incubated for 2 h at room temperature (blank DMSO serve as 0 μM). Meanwhile, other tubes containing the same platelet suspensions were added with HAC-B stock solution at a final concentration of 10 μM, which were shaken at the same conditions for 0.5, 1, 2, 3, or 4 h (the platelet suspension that was centrifugated immediately after HAC-B addition serves as the 0 h group). […] The total proteins in the supernatants were quantified through the BCA assay, and 10 μL of lysate supernatants were saved as the input samples. […]
# HSP90 [2] = assay: Quantification of biotin-labeled contents in platelets (biotin quantitation kit); type: cell-based, BALB/c mice; settings: 2 h
# Protocol: The fresh platelets were incubated with HAC-B at 2.5, 5, 10, 20, and 40 μM for 2 h, and the corresponding lysates were collected using the IP lysis buffer containing PMSF and phosphatase inhibitor cocktail. The biotin-labeled contents in each lysate supernatant were quantified by the QuantTag™ biotin quantitation kit, and the relevant engineering efficiency was calculated based on dividing the amount of biotin-labeled contents by the HAC-B amount added.
# BRD4 = biological target: T1, BRD4 (Homo sapiens, UniProt O60885); assay: Immunoblot analysis of BRD4 degradation in HSP90α-KO MDA-MB-231 cells; type: cell-based; settings: 24 h
# T1 construct: endogenous in cells; host or cells: WT MDA-MB-231 (ATCC)
# From the text: Immunoblot analysis: Immunoblot analysis was used to evaluate the expression of BRD4, HSP90, HSP90a, and PD-L1 in 4T1, WT MDA-MB-231, HSP90α-KO MDA-MB-231 or PEA-10 cells after various treatments and also served as the detection method for IP or co-IP experiments. The procedures for preparing IP or co-IP samples were indicated in the relevant experimental parts.
# Sample preparation for various cancer cells after free HAC treatment: Various cells, including 4T1, WT MDA-MB-231, HSP90α-KO MDA-MB-231, or PEA-10 cells, were seeded in 6-well culture plates with a density of 5×10^4 cells in each well and cultured for 24 h. Then, if HAI pretreatment was performed, the cells were incubated in the HAI-containing blank medium at different concentrations for 2 h and washed with PBS twice before the following treatments. […]
# General procedures for immunoblot analysis: After a 30-min lysis, the lysates were centrifuged at 10,000 g for 10 minutes at 4° C., and the corresponding supernatants were collected, followed by quantification of the total proteins in the supernatant through the BCA assay. […] Finally, the bands were treated with electrochemiluminescence (ECL) western blot substrate, detected by the iBright™ imaging system and quantified with ImageJ software. […]
SMILES,concentration dependence of HSP90 tethering in platelets (HSP90 [1]; 2 h),incubation time at which biotin labeling of HSP90 in platelets approaches a maximum (HSP90 [1]; HAC-B 10 μM) [h],HAC-B concentration at which biotin-labeled content inside platelets reaches a peak (HSP90 [2]) [µM],remaining BRD4 degradation potency (BRD4),effect of HSP90α deficiency on BRD4 degradation efficacy (BRD4; lower and higher concentration ranges)
"N#CCN(C(=O)CCCC[C@@H]1SC[C@@H]2NC(=O)N[C@@H]21)S(=O)(=O)c1ccc(C(=O)NCCCn2c(Sc3cc4c(cc3I)OCO4)nc3c(N)ncnc32)cc1 [HAC-B, N-(3-(6-amino-8-((6-iodobenzo[d][1,3]dioxol-5-yl)thio)-9H-purin-9-yl)propyl)-4-(N-(cyanomethyl)-N-(5-((3aS,4S,6aR)-2-oxohexahydro-1H-thieno[3,4-d]imidazol-4-yl)pentanoyl)sulfamoyl)benzamide]",in a concentration-dependent manner,~2,20,,
"Cc1sc2c(c1C)C(c1ccc(Cl)cc1)=N[C@@H](CC(=O)NCc1cn(CCCC(=O)N(CC#N)S(=O)(=O)c3ccc(C(=O)NCCCn4c(Sc5cc6c(cc5I)OCO6)nc5c(N)ncnc54)cc3)nn1)c1nnc(C)n1-2 [iHAC, (S)—N-(3-(6-amino-8-((6-iodobenzo[d][1,3]dioxol-5-yl)thio)-9H-purin-9-yl)propyl)-4-(N-(4-(4-((2-(4-(4-chlorophenyl)-2,3,9-trimethyl-6H-thieno[3,2-f][1,2,4]triazolo[4,3-a][1,4]diazepin-6-yl)acetamido)methyl)-1H-1,2,3-triazol-1-yl)butanoyl)-N-(cyanomethyl)sulfamoyl)benzamide]",,,,partially maintains the degradation potency,substantially compromised the BRD4 degradation efficacy
